The source of these data is ChEMBL document CHEMBL4145602, “Cyclic Peptidic Mimetics of Apollo Peptides Targeting Telomeric Repeat Binding Factor 2 (TRF2) and Apollo Interaction” (ACS Med Chem Lett, 2018).

The structures appear in SMILES notation. Square brackets hold non-standard residues; d marks the D form. Peptide text beside a SMILES is read from it. Phe(4-NH2) = Nc1ccc(C[C@H](N)C(=O)O)cc1; Gly(cPent) = N[C@H](C(=O)O)C1CCCC1; Cha = N[C@@H](CC1CCCCC1)C(=O)O; Chg = N[C@H](C(=O)O)C1CCCCC1; Nva = CCC[C@H](N)C(=O)O

As usually defined, the Ki is a measure of affinity in units of concentration, obtained from inhibition or displacement. Higher therefore signals a looser hold on the target.

This experiment concerns the target T1, Telomeric repeat-binding factor 2 (Homo sapiens, UniProt Q15554).
T1 sequence (Q15554 whole entry): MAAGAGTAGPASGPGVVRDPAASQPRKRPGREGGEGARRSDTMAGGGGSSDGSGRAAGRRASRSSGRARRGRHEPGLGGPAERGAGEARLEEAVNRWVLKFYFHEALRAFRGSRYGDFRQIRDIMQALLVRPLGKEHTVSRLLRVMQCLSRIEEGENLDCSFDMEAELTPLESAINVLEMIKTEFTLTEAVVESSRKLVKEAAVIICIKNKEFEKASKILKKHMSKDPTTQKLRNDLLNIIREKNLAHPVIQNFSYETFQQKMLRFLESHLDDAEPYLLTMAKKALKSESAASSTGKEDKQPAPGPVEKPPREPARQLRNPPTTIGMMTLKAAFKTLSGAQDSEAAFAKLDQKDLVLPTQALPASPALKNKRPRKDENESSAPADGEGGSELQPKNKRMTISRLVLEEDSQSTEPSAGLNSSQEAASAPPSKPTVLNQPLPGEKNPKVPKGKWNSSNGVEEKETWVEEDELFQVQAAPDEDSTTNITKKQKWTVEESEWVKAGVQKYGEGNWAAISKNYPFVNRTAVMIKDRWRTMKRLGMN
Nature of the experiment: Displacement of 5-((2R,6S,9S,12S,15S,18S,21S,24S)-3-((S)-2-((S)-1-amino-3-methyl-1-oxobutan-2-ylcarbamoyl)pyrrolidine-1-carbonyl)-15-(4-aminobutyl)-2-hydroxy-12-(4-hydroxybenzyl)-6,9,18,24-tetraisobutyl-21-methyl-5,8,11,14,17,20,23,26,29-nonaoxo-4,7,10,13,16,19,22,25,28-nonaazatetratriacontan-34-ylcarbamoyl)-2-(6-hydroxy-3-oxo-3H-xanthen-9-yl)benzoic acid from TRF2 TRFH domain (unknown origin) after 30 mins by fluorescence polarization assay. On the technique in general: In fluorescence polarisation assays a small probe gives low polarisation when free and higher when bound to something large.
In the case of `CC(=O)N[C@@H](CC(C)C)C(=O)N[C@@H](C)C(=O)N[C@@H](CC(C)C)C(=O)N[C@@H](CCCCN)C(=O)N[C@@H](Cc1ccc(O)cc1)C(=O)N[C@@H](CC(C)C)C(=O)N[C@@H](Cc1ccccc1)C(=O)N[C@H](C(=O)N1CCC[C@H]1C(=O)N[C@H](C(N)=O)C(C)C)[C@@H](C)O` (Ac-LALKYLFTPV-NH2), the affinity, expressed as Ki, was 8.5 µM.
`CCC[C@H](NC(=O)[C@H](CC(C)C)NC(=O)[C@H](Cc1ccc(O)cc1)NC(=O)[C@H](CCCCN)NC(=O)[C@H](CC(C)C)NC(=O)[C@H](C)NC(=O)[C@H](CC(C)C)NC(C)=O)C(=O)N[C@H](C(=O)N1CCC[C@H]1C(=O)N[C@H](C(N)=O)C(C)C)[C@@H](C)O` (Ac-LALKYL[Nva]TPV-NH2) showed a Ki of 4.7 µM.
On to `CC(=O)N[C@@H](CC(C)C)C(=O)N[C@@H](C)C(=O)N[C@@H](CC(C)C)C(=O)N[C@@H](CCCCN)C(=O)N[C@@H](Cc1ccc(O)cc1)C(=O)N[C@@H](CC(C)C)C(=O)N[C@H](C(=O)N[C@H](C(=O)N1CCC[C@H]1C(=O)N[C@H](C(N)=O)C(C)C)[C@@H](C)O)C1CCCCC1` (Ac-LALKYL[Chg]TPV-NH2), for which the Ki was 0.21 µM.
`CC(C)C[C@H](NC(=O)CN)C(=O)N[C@@H](C)C(=O)N[C@@H](CC(C)C)C(=O)N[C@@H](CCCCN)C(=O)N[C@@H](Cc1ccc(O)cc1)C(=O)N[C@@H](CC(C)C)C(=O)N[C@@H](CC(C)C)C(=O)N[C@H](C(=O)N1CCC[C@H]1C(=O)N[C@H](C(=O)O)C(C)C)[C@@H](C)O` (H-GLALKYLLTPV-OH) returned a Ki of 0.38 µM.
As to `CC(=O)N[C@@H](CC(C)C)C(=O)N[C@@H](C)C(=O)N[C@@H](CC(C)C)C(=O)N[C@@H](CCCCN)C(=O)N[C@@H](Cc1ccc(O)cc1)C(=O)N[C@@H](CC(C)C)C(=O)N[C@@H](CC(C)C)C(=O)O` (Ac-LALKYLL-OH), the affinity corresponds to a Ki of 98 µM.
On to `CC(C)C[C@@H]1NC(=O)[C@@H](NC(=O)[C@H](Cc2ccc(O)cc2)NC(=O)[C@@H](N)CCCCN)CCCCCCC[C@@H](C(=O)N(C)C)NC(=O)[C@@H]2CCCN2C(=O)[C@H](C)NC1=O`, for which the Ki amounted to 18.4 µM.
As to `CC(=O)N[C@@H](CC(C)C)C(=O)N[C@@H](C)C(=O)N[C@@H](CC(C)C)C(=O)N[C@@H](CCCCN)C(=O)N[C@@H](Cc1ccccc1)C(=O)N[C@@H](CC(C)C)C(=O)N[C@@H](CC(C)C)C(=O)N[C@H](C(=O)N1CCC[C@H]1C(=O)N[C@H](C(N)=O)C(C)C)[C@@H](C)O` (Ac-LALKFLLTPV-NH2), the Ki is 3.4 µM.
`CC(=O)N[C@@H](CC(C)C)C(=O)N[C@@H](C)C(=O)N[C@@H](CC(C)C)C(=O)N[C@@H](CCCCN)C(=O)N[C@@H](Cc1ccc(O)cc1)C(=O)N[C@@H](CC(C)C)C(=O)O` (Ac-LALKYL-OH) came in with a Ki of 461 µM.
Regarding `CC(C)C[C@H](NC(=O)[C@H](C)N)C(=O)N[C@@H](CCCCN)C(=O)N[C@@H](Cc1ccc(O)cc1)C(=O)N[C@@H](CC(C)C)C(=O)N[C@@H](CC(C)C)C(=O)N[C@H](C(=O)N1CCC[C@H]1C(=O)N[C@H](C(=O)O)C(C)C)[C@@H](C)O` (H-ALKYLLTPV-OH), the affinity, expressed as Ki, was 22.8 µM.
`CC(=O)N[C@@H](CC(C)C)C(=O)N[C@@H](C)C(=O)N[C@@H](CC(C)C)C(=O)N[C@@H](CCCCN)C(=O)N[C@@H](Cc1ccc(O)cc1)C(=O)N[C@@H](CC(C)C)C(=O)N[C@@H](CC1CCCCC1)C(=O)N[C@H](C(=O)N1CCC[C@H]1C(=O)N[C@H](C(N)=O)C(C)C)[C@@H](C)O` (Ac-LALKYL[Cha]TPV-NH2) gave a Ki of 1.4 µM.
Regarding `CC(C)C[C@H](NC(=O)[C@@H](N)CC(C)C)C(=O)N[C@H](C(=O)N1CCC[C@H]1C(=O)N[C@H](C(N)=O)C(C)C)[C@@H](C)O` (H-LLTPV-NH2), the Ki is above 500 µM.
As for `CC(=O)N[C@@H](CC(C)C)C(=O)N[C@@H](C)C(=O)N[C@@H](CC(C)C)C(=O)N[C@@H](CCCCN)C(=O)N[C@@H](Cc1ccc(O)cc1)C(=O)N[C@@H](CC(C)C)C(=O)N[C@@H](CC(C)C)C(=O)N[C@H](C(=O)N1CCC[C@H]1C(=O)N[C@H](C(=O)O)C(C)C)[C@@H](C)O` (Ac-LALKYLLTPV-OH), the affinity corresponds to a Ki of 0.34 µM.
The compound `CC(=O)N[C@@H](CC(C)C)C(=O)N[C@@H](C)C(=O)N[C@@H](CC(C)C)C(=O)N[C@@H](CCCCN)C(=O)N[C@@H](Cc1ccc(O)cc1)C(=O)N[C@@H](CC(C)C)C(=O)N[C@@H](CC(C)C)C(=O)N[C@H](C(=O)O)[C@@H](C)O` (Ac-LALKYLLT-OH) showed a Ki of 26.3 µM.
Compound `CC(C)C[C@@H]1NC(=O)[C@@H](NC(=O)[C@@H](N)Cc2ccccc2)CCCCCCC[C@@H](C(=O)N(C)C)NC(=O)[C@@H]2CCCN2C(=O)[C@H](C)NC1=O` gave an inhibitory constant (Ki) of 41.4 µM.
In turn, `CC(C)C[C@@H]1NC(=O)[C@@H](NC(=O)[C@@H](N)Cc2ccc(O)cc2)CCCCCCC[C@@H](C(=O)N(C)C)NC(=O)[C@@H]2CCCN2C(=O)[C@H](C)NC1=O` had a Ki of 58.2 µM.
For the compound `CC(C)C[C@@H]1NC(=O)[C@@H](NC(=O)[C@H](Cc2ccccc2)NC(=O)C[C@@H](N)Cc2ccccc2)CCCCCCC[C@@H](C(=O)N(C)C)NC(=O)[C@@H]2CCCN2C(=O)[C@H](C)NC1=O`, the Ki worked out at 14.3 µM.
Compound `CC(=O)N[C@@H](CC(C)C)C(=O)N[C@@H](C)C(=O)N[C@@H](CC(C)C)C(=O)N[C@@H](CCCCN)C(=O)N[C@@H](Cc1ccc(O)cc1)C(=O)N[C@@H](CC(C)C)C(=O)N[C@@H](CC(C)C)C(=O)N[C@@H](C)C(=O)N1CCC[C@H]1C(=O)N[C@H](C(N)=O)C(C)C` (Ac-LALKYLLAPV-NH2) registered a Ki of 0.24 µM.
The figure for `CC(C)C[C@H](NC(=O)[C@H](Cc1ccc(O)cc1)NC(=O)[C@@H](N)CCCCN)C(=O)N[C@@H](CC(C)C)C(=O)N[C@H](C(=O)N1CCC[C@H]1C(=O)N[C@H](C(=O)O)C(C)C)[C@@H](C)O` (H-KYLLTPV-OH) is 123 µM.
Turning to `CC(=O)N[C@@H](CC(C)C)C(=O)N[C@@H](C)C(=O)N[C@@H](CC(C)C)C(=O)N[C@@H](CCCCN)C(=O)N[C@@H](Cc1ccc(O)cc1)C(=O)N[C@H]1CCCCCCC[C@@H](C(=O)N(C)C)NC(=O)[C@@H]2CCCN2C(=O)[C@H](C)NC(=O)[C@H](CC(C)C)NC1=O`, the inhibition constant Ki was 0.09 µM.
In turn, `CC(C)C[C@@H]1NC(=O)[C@@H](NC(=O)[C@@H](N)Cc2ccccc2)CCCCCC[C@@H](C(=O)N(C)C)NC(=O)[C@@H]2CCCN2C(=O)[C@H](C)NC1=O` registered a Ki of 130 µM.
As to `CC(C)C[C@@H]1NC(=O)[C@@H](N)CCCCCCC[C@@H](C(=O)N(C)C)NC(=O)[C@@H]2CCCN2C(=O)[C@H](C)NC1=O`, affinity was put at a Ki of 115 µM.
Under `CC(C)C[C@H](NC(=O)[C@H](Cc1ccc(O)cc1)NC(=O)[C@H](CCCCN)NC(=O)[C@@H](N)CC(C)C)C(=O)N[C@@H](CC(C)C)C(=O)N[C@H](C(=O)N1CCC[C@H]1C(=O)N[C@H](C(=O)O)C(C)C)[C@@H](C)O` (H-LKYLLTPV-OH) stands 26.8 µM; under `CC(=O)N[C@@H](CC(C)C)C(=O)N[C@@H](C)C(=O)N[C@@H](CC(C)C)C(=O)N[C@@H](CCCCN)C(=O)N[C@@H](Cc1ccc(O)cc1)C(=O)N[C@@H](CC(C)C)C(=O)N[C@@H](C)C(=O)N[C@H](C(=O)N1CCC[C@H]1C(=O)N[C@H](C(N)=O)C(C)C)[C@@H](C)O` (Ac-LALKYLATPV-NH2), above 100 µM.
The figure for `CC(=O)N[C@@H](CC(C)C)C(=O)N[C@@H](C)C(=O)N[C@@H](CC(C)C)C(=O)N[C@@H](CCCCN)C(=O)N[C@@H](Cc1ccc(O)cc1)C(=O)N[C@@H](CC(C)C)C(=O)N[C@H](C(=O)N[C@H](C(=O)N1CCC[C@H]1C(=O)N[C@H](C(N)=O)C(C)C)[C@@H](C)O)C1CCCC1` (Ac-LALKYL[Gly(cPent)]TPV-NH2) is 0.51 µM.
`CC[C@H](C)[C@H](NC(=O)[C@H](CC(C)C)NC(=O)[C@H](Cc1ccc(O)cc1)NC(=O)[C@H](CCCCN)NC(=O)[C@H](CC(C)C)NC(=O)[C@H](C)NC(=O)[C@H](CC(C)C)NC(C)=O)C(=O)N[C@H](C(=O)N1CCC[C@H]1C(=O)N[C@H](C(N)=O)C(C)C)[C@@H](C)O` (Ac-LALKYLITPV-NH2) displayed a Ki of 11.3 µM.
For `CC(=O)N[C@@H](CC(C)C)C(=O)N[C@@H](C)C(=O)N[C@@H](CC(C)C)C(=O)N[C@@H](CCCCN)C(=O)N[C@@H](Cc1ccc(O)cc1)C(=O)N[C@@H](CC(C)C)C(=O)N[C@H](C(=O)N[C@H](C(=O)N1CCC[C@H]1C(=O)N[C@H](C(N)=O)C(C)C)[C@@H](C)O)C(C)C` (Ac-LALKYLVTPV-NH2), the affinity, expressed as Ki, was 61.2 µM.
The figure for `CC(=O)N[C@@H](CC(C)C)C(=O)N[C@@H](C)C(=O)N[C@@H](CC(C)C)C(=O)N[C@@H](CCCCN)C(=O)N[C@@H](Cc1ccc(N)cc1)C(=O)N[C@@H](CC(C)C)C(=O)N[C@@H](CC(C)C)C(=O)N[C@H](C(=O)N1CCC[C@H]1C(=O)N[C@H](C(N)=O)C(C)C)[C@@H](C)O` (Ac-LALK[Phe(4-NH2)]LLTPV-NH2) is 0.72 µM; for `CC(C)C[C@H](NC(=O)[C@H](C)NC(=O)[C@@H](N)CC(C)C)C(=O)N[C@@H](CCCCN)C(=O)N[C@@H](Cc1ccc(O)cc1)C(=O)N[C@@H](CC(C)C)C(=O)N[C@@H](CC(C)C)C(=O)N[C@H](C(=O)N1CCC[C@H]1C(=O)N[C@H](C(=O)O)C(C)C)[C@@H](C)O` (H-LALKYLLTPV-OH) it is 2.2 µM.
Under `CC(C)C[C@@H]1NC(=O)[C@@H](NC(=O)[C@H](Cc2ccccc2)NC(=O)CCc2ccccc2)CCCCCCC[C@@H](C(=O)N(C)C)NC(=O)[C@@H]2CCCN2C(=O)[C@H](C)NC1=O` stands 11.2 µM.
